This is an account of results in patent US20100240617A1, “BICYCLIC SPHINGOSINE 1-PHOSPHATE ANALOGS” (University of Virginia Patent Foundation, priority 2007, published 2010).

This experiment has as its system lymphocytes in blood. The experiment can be described thus: lymphopenia assay. The following applies: mice, 8 doses, 3 mice per dose. Type of experiment: in vivo. Here is the method:
Compounds (e.g., primary alcohols such as compound VIII) are dissolved in 2% hydroxypropyl beta-cyclodextrin and introduced into groups of mice by oral gavage at doses from 0.01, 1.0 and 10 mg/kg body weight. After 24 hours and 48 hours, the mice are lightly anesthetized and ca. 0.1 ml of blood is drawn from the orbital sinus. The number of lymphocytes (in thousands per microliter of blood; normal is 4-11) is determined using a Hemavet blood analyzer. There are three mice/group, the strain was mixed sv129×C57BL/6. Active compounds (e.g., compound VIII-C and compound VIII-D) are dissolved in acidified DMSO at 20 mM, and diluted 1:20 into 2% hydroxypropyl beta-cyclodextrin in water with mixing. […]

For the compound `CCCCCCCCc1ccc2c(c1)CCC(C(N)(CO)CO)C2` (single isomer, unassigned; (+)) [VIII-A, (+)-2-Amino-2-(6-octyl-1,2,3,4-tetrahydro-naphthalen-2-yl)-propane-1,3-diol], the “ED50 in the lymphopenia assay” value is 0.2 mg/kg. The figure for `CCCCCCCCc1ccc2c(c1)CCC(C(N)(CO)CO)C2` (single isomer, unassigned; (-)) [VIII-B, (−)-2-Amino-2-(6-octyl-1,2,3,4-tetrahydro-naphthalen-2-yl)-propane-1,3-diol] is 2 mg/kg.
